Test results as given in paper PMC3689833, “Neurochemical Changes in the Mouse Hippocampus Underlying the Antidepressant Effect of Genetic Deletion of P2X7 Receptors” (PLoS ONE, 2013).

Tests used:
β-adrenergic receptors = assay: 3H-Dihydroalprenolol binding in hippocampal membranes; parameters: species or system mouse
Method: Male mice (80–85 days old) were decapitated, and the hippocampus was dissected, weighted, and frozen overnight at −70°C. The next day, the tissue from four animals was pooled, homogenized in incubation buffer using an Ultra-Turrax and centrifuged at 40 000×g for 15 minutes. The pellet was washed by repeated resuspension in buffer, followed by centrifugation. […] Eight ligand concentrations (0.1–4 nM) were used in three parallels. […] The membranes of P2rx7+/+ and P2rx7−/− mice were assayed in parallel. The binding was terminated using vacuum filtration on GF/B filters soaked in 0.05% polyethylenimine. The Kd and the number of binding sites (Bmax) were calculated using Prism3 software. The protein concentration (approx. 0.5 mg/ml) was measured according to Lowry method [50] using CuEDTA.

NA transporter = molecular target: T1, NA transporter (Mus musculus, UniProt O55192); assay: 3H-Nisoxetine binding in hippocampal membranes
T1 construct: the tissue from four animals was pooled, homogenized in incubation buffer; from tissue; host or cells: mouse hippocampus membranes (P2rx7+/+ and P2rx7-/- littermates, C57BL/6 background)
T1 sequence (O55192 whole entry): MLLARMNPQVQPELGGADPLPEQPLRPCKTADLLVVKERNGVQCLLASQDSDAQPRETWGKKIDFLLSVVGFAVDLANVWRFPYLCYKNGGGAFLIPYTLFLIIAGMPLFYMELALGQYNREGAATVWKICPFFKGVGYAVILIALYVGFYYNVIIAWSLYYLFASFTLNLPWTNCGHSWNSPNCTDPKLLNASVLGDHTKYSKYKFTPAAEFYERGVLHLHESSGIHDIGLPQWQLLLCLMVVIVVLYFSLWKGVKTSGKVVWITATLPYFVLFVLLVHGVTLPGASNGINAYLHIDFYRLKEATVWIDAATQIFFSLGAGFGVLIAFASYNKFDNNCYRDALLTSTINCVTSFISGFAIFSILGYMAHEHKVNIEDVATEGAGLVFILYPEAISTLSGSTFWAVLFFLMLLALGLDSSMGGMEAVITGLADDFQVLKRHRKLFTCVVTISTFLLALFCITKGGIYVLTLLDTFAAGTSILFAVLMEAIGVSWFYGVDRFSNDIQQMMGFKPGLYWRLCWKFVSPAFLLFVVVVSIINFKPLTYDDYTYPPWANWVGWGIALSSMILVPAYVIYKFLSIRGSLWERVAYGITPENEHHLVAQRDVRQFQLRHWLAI
Method: Male mice (80–85 days old) were decapitated, and the hippocampus was dissected, weighted, and frozen overnight at −70°C. The next day, the tissue from four animals was pooled, homogenized in incubation buffer using an Ultra-Turrax and centrifuged at 40 000×g for 15 minutes. The pellet was washed by repeated resuspension in buffer, followed by centrifugation. […] Eight ligand concentrations (0.1–4 nM) were used in three parallels. The incubation time was 1 hour at 25°C for citalopram, 2.5 hrs at 4°C for nisoxetine and 30 minutes at 25°C for dihydroalprenolol. The non-specific binding was determined in the presence of 1 µM paroxetine (citalopram), 10 µM desmethylimipramine (nisoxetine) and 1 µM (-) alprenolol (DHA). The membranes of P2rx7+/+ and P2rx7−/− mice were assayed in parallel. The binding was terminated using vacuum filtration on GF/B filters soaked in 0.05% polyethylenimine. The Kd and the number of binding sites (Bmax) were calculated using Prism3 software. The protein concentration (approx. 0.5 mg/ml) was measured according to Lowry method using CuEDTA.

[1] = hippocampal membranes of P2rx7+/+ mice
[2] = hippocampal membranes of P2rx7−/− mice

Row | Kd (NA transporter) | Bmax (NA transporter; [1]) | Bmax (NA transporter; [2]) | SMILES | Kd (β-adrenergic receptors; [1]) | Kd (β-adrenergic receptors; [2])
1 | – | – | – | CCCc1ccccc1OCC(O)CNC(C)C (centres unmarked) [^3H-dihydroalprenolol] | 0.5 ± 0.02 nM | 0.4 ± 0.02 nM
2 | 0.7 ± 0.05 nM | 126.8±4.9 fmol/mg protein | 131.4±7.5 fmol/mg protein | CNCCC(Oc1ccccc1OC)c1ccccc1 (centres unmarked) [^3H-nisoxetine] | – | –
